One series has as its system H1HeLa cells. Put plainly: Cytotoxicity, microculture tetrazolium (MTT) test, H1HeLa. In kind it is cell-based. Conditions: H1HeLa, 24 h, microscopy. The protocol: (§1) The cytotoxicity of biaryl monophosphines was tested in vitro in normal (VERO) and cancer-derived (H1HeLa) cells after 24 h of incubation using a microculture tetrazolium test. Table 2 presents the CC50 (concentrations decreasing the cellular viability by 50%) values calculated from dose–response cytotoxicity curves (Figure 4).
(§2) Cytotoxicity was evaluated using a microculture tetrazolium test as previously described, and details can be found in the Supplementary Materials. The cell lines used in the presented study were acquired from the American Type Culture Collection (ATCC); the one used for cytotoxicity testing included non-cancerous VERO (kidney; ATCC CCL-81) cells and cancer-originating H1HeLa (cervical adenocarcinoma; ATCC CRL-1958) cells. VERO cells were cultured in Dulbecco’s Modified Eagle’s Medium (DMEM; Corning, Tewksbury, MA, USA), while Eagle’s Minimum Essential Medium (MEM; Corning) was used for H1HeLa. Antibiotics (penicillin–streptomycin solution, Corning) and fetal bovine serum (FBS, Corning) were added to cell media. Cells were incubated in a 5% CO2 atmosphere at 37 °C (CO2 incubator, Panasonic Healthcare Co., Tokyo, Japan). Briefly, the monolayers of VERO or H1HeLa cells in 96-well plates (Falcon, Corning) were treated with serial dilutions of selected compounds for 24 h. After this, the medium was removed, the plates were washed with phosphate buffered saline (PBS; Corning), a 10% solution of (3-(4,5-dimethylthiazol-2-yl)-2,5-diphenyltetrazolium bromide (MTT; Sigma-Aldrich, St. Louis, MO, USA) (5 mg/mL) in FBS-free cell media was added, and the incubation continued for the next 4 h. Subsequently, the precipitated formazan crystals were dissolved, and after overnight incubation at 37 °C, the Synergy H1 Multi-Mode Microplate Reader (BioTek Instruments, Inc., Winooski, VT, USA) with Gen5 software (ver. 3.09.07; BioTek Instruments, Inc.) was used for absorbance acquisition (540 and 620 nm). Data was exported to GraphPad Prism (ver. 10) to calculate the CC50 values (50% cytotoxic concentration) from dose–response curves.
(§3) Aromaticity Tuning in Biaryl Monophosphines and Their Derivatives […]
(§4) Cell line maintenance and in vitro experiments
(§5) The cytotoxicity of selected biaryl monophosphines was evaluated in vitro towards normal VERO (ATCC, CCL-81) cells and cancer-derived cell line H1HeLa (cervical adenocarcinoma; ATCC (American Type Culture Collection) CRL-1958) using 3-(4,5-dimethylthiazol-2-yl)-2,5-diphenylte-trazolium bromide (MTT) based protocol.
(§6) Media used for in vitro culturing included Dulbecco's Modified Eagle's Medium (DMEM, Corning, Tewksbury, MA, USA) used for VERO cells and Modified Eagle Medium (MEM, Corning) used for H1HeLa. Cell media used in the experiments were supplemented with antibiotics (Penicil-lin-Streptomycin Solution, Corning) and fetal bovine serum (FBS, Corning) – 10% (cell passaging) and 2% (cell maintenance and experiments). Phosphate-buffered saline (PBS) and trypsin were bought from Corning, whereas MTT (3-(4,5-dimethylthiazol-2-yl)-2,5-diphenyltetrazolium bromide) from Sigma (Sigma-Aldrich, St. Louis, MO, USA). SDS was purchased from PanReac Applichem (Darmstadt, Germany). Incubation was carried out in a 5% CO2 atmosphere at 37°C (CO2 incubator, Panasonic Healthcare Co., Tokyo, Japan).
(§7) Concentrations of cells for passaging were as follows: VERO – 1.5*10^5 cells/mL, H1HeLa – 2*10^5 cells/mL. Routine observations of cell cultures and experiments were carried out using an in-verted microscope (CKX41, Olympus Corporation, Tokyo, Japan) equipped with a ca mera (Moti-cam 3+, Motic, Hong Kong), and the results were recorded (Motic Images Plus 2.0, Motic).
(§8) Stock solutions of biaryl monophosphines were prepared by dissolving the samples in cell culture grade DMSO (PanReac Applichem).
(§9) Evaluation of cytotoxicity
(§10) Cytotoxicity was tested using an MTT-based protocol. The cells were passaged into 96-well plates (Falcon, TC-treated, Corning) and, after overnight incubation, treated with serial dilutions of […]

In another series the test system is A. baumannii ATCC 19606. The experiment in a line: Antibacterial screening, broth microdilution (MIC/MBC). It is filed as cell-based, Acinetobacter baumannii. Conditions: Acinetobacter baumannii, ATCC19606; A. baumannii ATCC 19606, MHB, 24 h, 35 °C; read-out: MIC. The protocol:
(§11) The antimicrobial activities of a series of compounds 1–5 were tested through the utilization of seven reference species, encompassing both Gram-positive (Staphylococcus aureus ATCC 29213, Staphylococcus epidermidis ATCC 12228, Micrococcus luteus ATCC 10240) and Gram-negative (Escherichia coli ATCC 25922, Klebsiella pneumoniae ATCC 13883, Proteus mirabilis ATCC 12453, Acinetobacter baumannii ATCC 19606) bacteria as model microorganisms. For this purpose, microbial suspensions were prepared in sterile saline (0.85% NaCl) with an optical density of 0.5 McFarland standard, yielding a concentration of 150 × 10^6 CFU/mL (CFU, colony-forming units). All of the stock solutions of the tested compounds were dissolved in DMSO. Amoxicillin (Glentham Life Sciences Ltd., Corsham, UK) was used as a positive control.
(§12) The MIC values of the tested compounds were determined by serial twofold dilutions of 1–5 in Mueller Hinton Broth (MHB, Biomaxima, Lublin, Poland). The range of final 1–5 concentrations used was from 0.49 up to 1000 μg/mL, and for amoxicillin from 0.12 up to 250 μg/mL in the 96-well microtiter plates (Medlab, Raszyn, Poland), starting with 98 μL MHB and 2 μL bacterial inoculum added to each well. Positive controls consisted of 100 μL MHB in each well with the tested compounds at the same concentration range. The negative controls consisted of 100 μL of MHB only. Each set of tests and controls was established with three replicates. The microtiter plates were then subjected to an incubation period of 24 h at a temperature of 35 ± 2 °C. After incubation, the optical density of the microbial growth was measured at a wavelength of 600 nm using a microplate reader, the Biotek Elx800 (BioTek Instruments, Inc., Winooski, VT, USA). The MIC value was defined as the lowest concentration of the tested compound at which there was no visible growth of the tested microorganisms. The determination of the MIC values was achieved by employing the broth microdilution method, in accordance with the recommendations of the European Committee on Antimicrobial Susceptibility Testing (EUCAST). […] Then, the MHA plates were incubated overnight at 35 ± 2 °C. […] The MIC and MBC values were reported in μg/mL, according to the EUCAST reference.
Background: Dilution methods test growth across graded concentrations, often in twofold steps.

The subject of another series is VERO cells. Put plainly: Cytotoxicity, microculture tetrazolium (MTT) test, VERO. It is filed as cell-based. Conditions: VERO, 24 h, microscopy. As for the experimental part: as §1, §2, §3, §4, §5, §6, §7, §8, §9, §10
Assay in series [1]: as above
It is filed as cell-based. Conditions: African green monkey, ATCC CCL-81; VERO (normal kidney cells), 24 h incubation, MTT; ± SD. As for the experimental part:
as §1, §2, §3, §4, §5, §6, §7, §8, §9, §10

The test system of a further series is M. luteus ATCC 10240. Put plainly: Antibacterial screening, broth microdilution (MIC/MBC). It is filed as cell-based, Micrococcus luteus. Conditions: Micrococcus luteus, ATCC10240; M. luteus ATCC 10240; read-out: MBC. As for the experimental part:
as §11, §12

Converted amounts (≈) assume the structure as drawn.

One may read the MIC as the least concentration at which growth counts as inhibited. Broadly, the CC50 is the concentration giving 50% cytotoxicity. Broadly, the MBC is the lowest tested concentration that kills the bacteria rather than only halting them. On to `COc1cc(OC)c(-c2c(P(=O)(C3CCCCC3)C3CCCCC3)c(O)c3ccccc3c2OC)c(OC)c1` [Compound 3, 2-(Dicyclohexylphosphoryl)-4-methoxy-3-(2,4,6-trimethoxyphenyl)naphthalen-1-ol], for which the “influence on morphology of the cellular monolayer” value (“influence on morphology” below) is on record as “the cellular monolayer resembled the control cells” in the series on H1HeLa cells (1.6 µg/mL); “only a fraction of shrunken cells visible” in the series on H1HeLa cells (3.1 µg/mL); “most of the cells showed cytotoxic damage” in the series on H1HeLa cells (6.3 µg/mL); “destroyed the cellular monolayer” in the series on H1HeLa cells (12.5 µg/mL); “the cellular monolayer resembled the control cells” with VERO cells (1.6 µg/mL); “only a fraction of shrunken cells visible” in the series with VERO cells (3.1 µg/mL). In addition, the entries for the “influence on morphology” value in the series on VERO cells (6.3 µg/mL) and in the series on VERO cells (12.5 µg/mL) were “most of the cells showed cytotoxic damage” and “destroyed the cellular monolayer”, respectively. Also, the minimum inhibitory concentration (MIC) in the series on A. baumannii ATCC 19606 was more than 1000 µg/mL. Moreover, in series [1], the half-maximal cytotoxic concentration (CC50) at 24 h came to 3.11 ± 0.14 µg/mL. In addition, the MBC with M. luteus ATCC 10240 was more than 1000 µg/mL.
For `COc1cc(OC)c(-c2c(P(=O)(C3CCCCC3)C3CCCCC3)c(OC)c3ccccc3c2OC)c(OC)c1` [Compound 1, Dicyclohexyl[1,4-dimethoxy-3-(2,4,6-trimethoxyphenyl)naphthalen-2-yl]phosphane oxide], the “influence on morphology” value in the series with H1HeLa cells (12.5 µg/mL) is given as “monolayer of H1Hela was destroyed”; in the series with VERO cells (12.5 µg/mL), “some fibroblast-shaped VERO cells were noticeable”. For the same compound, the MIC with A. baumannii ATCC 19606 was found to be 1000 µg/mL (≈ 1760 µM). Further, the CC50 at 24 h in series [1] is 9.82 ± 0.59 µg/mL. In addition, in the series with M. luteus ATCC 10240, the MBC is 125 µg/mL (≈ 221 µM).
On to `COc1ccccc1-c1c(P(=O)(C2CCCCC2)C2CCCCC2)c(OC)c2ccccc2c1OC` [Compound 2, Dicyclohexyl[1,4-dimethoxy-3-(2-methoxyphenyl)naphthalen-2-yl]phosphane oxide], for which the “influence on morphology” value in the series on H1HeLa cells (12.5 µg/mL) is recorded as “monolayer of H1Hela was destroyed”; in the series on VERO cells (12.5 µg/mL), “some fibroblast-shaped VERO cells were noticeable”. Besides, the MIC in the series with A. baumannii ATCC 19606 came out at 500 µg/mL (≈ 987 µM). In addition, the CC50 at 24 h in series [1] was 7.78 ± 0.44 µg/mL. Besides, in the series on M. luteus ATCC 10240, the MBC was more than 1000 µg/mL.

(Values after paper PMC12525867, “Aromaticity Tuning in Biaryl Monophosphines and Their Derivatives” (Molecules, 2025).)
